Consider 23 molecules from patent US20040082635A1, “Fused cyclic compounds and medicinal use thereof” (priority 2001, published 2004).

Structures can show the parent of a compound that is named as a salt.

A word on the IC50: it is the concentration that inhibits the measured activity by half.

The target in one assay is T1, HCV polymerase (Hepatitis C virus genotype 1b, UniProt P26663).
T1 construct: a region encoding NS5B (591 amino acids; J Virol 1991 Mar, 65(3), 1105-13) was amplified by PCR; 6 His (N); made in house; host or cells: Escherichia coli
T1 sequence (P26663 2420-3010): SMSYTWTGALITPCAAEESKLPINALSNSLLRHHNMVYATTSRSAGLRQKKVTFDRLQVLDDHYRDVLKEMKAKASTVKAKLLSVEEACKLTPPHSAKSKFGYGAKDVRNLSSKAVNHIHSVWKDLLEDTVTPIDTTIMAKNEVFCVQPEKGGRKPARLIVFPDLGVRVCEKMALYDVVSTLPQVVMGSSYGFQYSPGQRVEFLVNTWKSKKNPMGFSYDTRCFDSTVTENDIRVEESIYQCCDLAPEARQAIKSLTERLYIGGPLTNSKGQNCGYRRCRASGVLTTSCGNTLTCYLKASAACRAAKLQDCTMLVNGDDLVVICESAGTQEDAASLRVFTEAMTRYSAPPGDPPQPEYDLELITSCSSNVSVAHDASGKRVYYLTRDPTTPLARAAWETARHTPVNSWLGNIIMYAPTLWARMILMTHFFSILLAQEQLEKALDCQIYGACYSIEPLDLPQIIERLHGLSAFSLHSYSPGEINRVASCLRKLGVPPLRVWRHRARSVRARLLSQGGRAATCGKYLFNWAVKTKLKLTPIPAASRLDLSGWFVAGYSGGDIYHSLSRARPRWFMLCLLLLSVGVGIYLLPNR
Nature of the assay: biochemical. The conditions noted are these: HCV polymerase inhibitory activity IC50.
For `CN(C)C(=O)c1ccc(-c2ccc(Cl)cc2)c(COc2ccc(-c3nc4cc(C(=O)O)ccc4n3C3CCCCC3)cc2)c1` [Example 232, 2-{4-[2-(4-chlorophenyl)-5-dimethylcarbamoylbenzyloxy]phenyl}-1-cyclohexylbenzimidazole-5-carboxylic acid], the IC50 stood at 0.015 µM.

The assay is the same for the next values; noted with them: read-out: HCV polymerase inhibitory activity IC50.
Regarding `COc1ccc(-c2cccc(Oc3ccc(-c4nc5cc(C(=O)O)ccc5n4C4CCCCC4)cc3)c2)cc1` [Example 216, 1-cyclohexyl-2-{4-[3-(4-methoxyphenyl)phenoxy]phenyl}-benzimidazole-5-carboxylic acid], the half-maximal inhibitory concentration (IC50) was 0.084 µM.

For `Cc1nc(-c2ccc(S(C)(=O)=O)cc2)c(COc2ccc(-c3nc4cc(C(=O)O)ccc4n3C3CCCCC3)cc2)s1` [Example 217, 1-cyclohexyl-2-{4-[{4-(4-methanesulfonylphenyl)-2-methyl-5-thiazolyl}methoxy]phenyl}benzimidazole-5-carboxylic acid], the IC50 was determined as 0.058 µM.

As for `Cc1nc(-c2ccc(Cl)cc2)c(COc2ccc(-c3nc4cc(C(=O)O)ccc4n3C3CCCCC3)cc2)s1` [Example 218, 2-{4-[{4-(4-chlorophenyl)-2-methyl-5-thiazolyl}methoxy]phenyl}-1-cyclohexylbenzimidazole-5-carboxylic acid], the IC50 amounted to 0.033 µM.

In the case of `O=C(O)c1ccc2c(c1)nc(-c1ccc(OC3CCCN(Cc4ccc(Cl)cc4)C3)cc1)n2C1CCCCC1` (centres unmarked) [Example 219, 2-{4-[1-(4-chlorobenzyl)-3-piperidyloxy]phenyl}-1-cyclohexylbenzimidazole-5-carboxylic acid], the IC50 stood at 0.13 µM.

As for `Cc1nc(COc2cccc(Oc3ccc(-c4nc5cc(C(=O)O)ccc5n4C4CCCCC4)cc3)c2)cs1` [Example 220, 1-cyclohexyl-2-{4-[3-{(2-methyl-4-thiazolyl)methoxy}phenoxy]-phenyl}benzimidazole-5-carboxylic acid], the IC50 worked out at 0.073 µM.

Take `Cc1nc(C)c(COc2cccc(Oc3ccc(-c4nc5cc(C(=O)O)ccc5n4C4CCCCC4)cc3)c2)s1` [Example 221, 1-cyclohexyl-2-{4-[3-{(2,4-dimethyl-5-thiazolyl)methoxy}phenoxy]-phenyl}benzimidazole-5-carboxylic acid]: the IC50 was 0.058 µM.

As to `O=C(O)c1ccc2c(c1)nc(-c1ccc(Oc3cccc(-c4cc(Cl)cc(Cl)c4)c3)cc1)n2C1CCCCC1` [Example 222, 1-cyclohexyl-2-{4-[3-(3,5-dichlorophenyl)phenoxy]phenyl}-benzimidazole-5-carboxylic acid], the half-inhibitory concentration (IC50) amounted to 0.041 µM.

Turning to `O=C(O)c1ccc2c(c1)nc(-c1ccc(OC3CCN(Cc4ccc(Cl)cc4)CC3)cc1)n2C1CCCCC1` [Example 223, 2-{4-[1-(4-chlorobenzyl)-4-piperidyloxy]phenyl}-1-cyclohexylbenzimidazole-5-carboxylic acid], the IC50 was 0.21 µM.

For the molecule `NC(=O)c1ccc(COc2ccc(-c3nc4cc(C(=O)O)ccc4n3C3CCCCC3)cc2)c(-c2ccc(Cl)cc2)c1` [Example 225, 2-{4-[4-carbamoyl-2-(4-chlorophenyl)benzyloxy]phenyl}-1-cyclohexylbenzimidazole-5-carboxylic acid], the IC50 came to 0.014 µM.

In the case of `O=C(O)c1ccc2c(c1)nc(-c1ccc(Oc3cccc(OCc4ccnc(Cl)c4)c3)cc1)n2C1CCCCC1` [Example 227, 2-{4-[3-{(2-chloro-4-pyridyl)methoxy}phenoxy]phenyl}-1-cyclohexylbenzimidazole-5-carboxylic acid], the IC50 was 0.045 µM.

Take `CN(C)C(=O)c1ccc(N2CCC[C@H]2COc2ccc(-c3nc4cc(C(=O)O)ccc4n3C3CCCCC3)cc2)cc1` [Example 228, 2-{4-[{(2S)-1-(4-dimethylcarbamoylphenyl)-2-pyrrolidinyl}-methoxy]phenyl}-1-cyclohexylbenzimidazole-5-carboxylic acid]: the IC50 was 0.18 µM.

In the case of `CCOC(=O)c1ccc(-c2ccc(Cl)cc2)c(COc2ccc(-c3nc4cc(C(=O)O)ccc4n3C3CCCCC3)cc2)c1` [Example 229, 2-{4-[2-(4-chlorophenyl)-5-ethoxycarbonylbenzyloxy]phenyl}-1-cyclohexylbenzimidazole-5-carboxylic acid], the IC50 worked out at 0.022 µM.

Take `O=C(O)c1ccc2c(c1)nc(-c1ccc(Oc3cccc(C(F)(F)F)c3)cc1)n2C1CCCCC1` [Example 230, 1-cyclohexyl-2-[4-(3-trifluoromethylphenoxy)phenyl]-benzimidazole-5-carboxylic acid]: the IC50 amounted to 0.17 µM.

As to `Cc1nc(-c2ccc(C(=O)N(C)C)cc2)c(COc2ccc(-c3nc4cc(C(=O)O)ccc4n3C3CCCCC3)cc2)s1` [Example 231, 1-cyclohexyl-2-{4-[{4-(4-dimethylcarbamoylphenyl)-2-methyl-5-thiazolyl}methoxy]phenyl}benzimidazole-5-carboxylic acid], the IC50 was 0.073 µM.

In the case of `O=C(O)c1ccc2c(c1)nc(-c1ccc(OCc3cccnc3-c3ccc(Cl)cc3)cc1)n2C1CCCCC1` [Example 234, 2-{4-[{2-(4-chlorophenyl)-3-pyridyl}methoxy]phenyl}-1-cyclohexylbenzimidazole-5-carboxylic acid dihydrochloride], the IC50 was determined as 0.022 µM.

Consider `O=C(O)c1ccc2c(c1)nc(-c1ccc(OCc3ncccc3-c3ccc(Cl)cc3)cc1)n2C1CCCCC1` [Example 235, 2-{4-[{3-(4-chlorophenyl)-2-pyridyl}methoxy]phenyl}-1-cyclohexylbenzimidazole-5-carboxylic acid], for which the IC50 was determined as 0.036 µM.

For the molecule `CNc1nc(Oc2ccc(-c3nc4cc(C(=O)O)ccc4n3C3CCCCC3)cc2)nc(-c2cccc(Cl)c2)n1` [Example 236, 2-{4-[2-(3-chlorophenyl)-4-methylamino-1,3,5-triazin-6-yloxy]phenyl}-1-cyclohexylbenzimidazole-5-carboxylic acid trifluoroacetate], the 50% inhibitory concentration (IC50) amounted to 0.075 µM.

Take `O=C(O)c1ccc2c(c1)nc(-c1ccc(OCc3ccc(-c4nnn[nH]4)cc3-c3ccc(Cl)cc3)cc1)n2C1CCCCC1` [Example 237, 2-{4-[2-(4-chlorophenyl)-4-(5-tetrazolyl)benzyloxy]phenyl}-1-cyclohexylbenzimidazole-5-carboxylic acid]: the IC50 was found to be 0.015 µM.

Take `O=C(O)c1ccc2c(c1)nc(-c1ccc(Oc3cc(OCc4ccccc4)ncn3)cc1)n2C1CCCCC1` [Example 238, 2-[4-(4-benzyloxy-6-pyrimidinyloxy)phenyl]-1-cyclohexylbenzimidazole-5-carboxylic acid]: the half-maximal inhibitory concentration (IC50) worked out at 0.19 µM.

Regarding `O=C(O)c1ccc2c(c1)nc(-c1ccc(Oc3cc(OCc4ccncc4)ncn3)cc1)n2C1CCCCC1` [Example 239, 1-cyclohexyl-2-{4-[4-(4-pyridylmethoxy)-6-pyrimidinyloxy]phenyl}-benzimidazole-5-carboxylic acid], the IC50 is 0.17 µM.

Turning to `CNC(=O)c1ccc(-c2ccc(Cl)cc2)c(COc2ccc(-c3nc4cc(C(=O)O)ccc4n3C3CCCCC3)cc2)c1` [Example 248, 2-{4-[2-(4-chlorophenyl)-5-methylcarbamoylbenzyloxy]phenyl}-1-cyclohexylbenzimidazole-5-carboxylate hydrochloride], the concentration for half-maximal inhibition (IC50) was 0.012 µM.

On to `CC(C)(C)NS(=O)(=O)c1ccc(-c2ccc(Cl)cc2)c(COc2ccc(-c3nc4cc(C(=O)O)ccc4n3C3CCCCC3)cc2)c1` [Example 249, 2-{4-[3-(tert-butylsulfamoyl)-6-(4-chlorophenyl)benzyloxy]-phenyl}-1-cyclohexylbenzimidazole-5-carboxylic acid], for which the IC50 was determined as 0.022 µM.
